Legend:
IMC-1 (IL-2 20 ng/mL) [1] = experiment: drug sensitivity score (DSS) (DSS units); higher = more sensitive; extreme values may be limits of the assay; conditions: 72 h
[2] = tested on: normal primary NK cells, pool 3 (3 donors) (IL-2 2.5 ng/mL); experiment: as above; conditions: 72 h
[3] = tested on: normal primary NK cells, pool 2 (3 donors) (IL-2 2.5 ng/mL); experiment: as above; conditions: 72 h
[4] = tested on: normal NK cells expanded with K562-aAPC; experiment: as above; conditions: 72 h; IL-2 2.5 ng/mL
Description: (§1)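 Drug sensitivity and resistance testing on K562-aAPC-expanded normal NK cells: 5 concentrations (10-fold steps over a 10,000-fold range), 72 h at 37 °C, viability by CellTiter-Glo normalised to DMSO and benzethonium chloride controls; DSS from the fitted curve.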

[5] = tested on: normal NK cells expanded with K562-aAPC; experiment: percent inhibition of viability; higher = more inhibition; conditions: 72 h, IL-2 2.5 ng/mL
Description: as §1

IMC-1 (IL-2 20 ng/mL) [6] = experiment: as above; conditions: 72 h
[7] = tested on: normal primary NK cells, pool 3 (3 donors) (IL-2 2.5 ng/mL); experiment: as above; conditions: 72 h
[8] = tested on: normal primary NK cells, pool 2 (3 donors) (IL-2 2.5 ng/mL); experiment: as above; conditions: 72 h
KHYG-1 (IL-2 2.5 ng/mL) [9] = experiment: drug sensitivity score (DSS) (DSS units); higher = more sensitive; extreme values may be limits of the assay; conditions: 72 h
[10] = tested on: normal primary NK cells, pool 1 (3 donors), resting (IL-2 0 ng/mL); experiment: as above; conditions: 72 h
NK-YS (IL-2 2.5 ng/mL) [11] = experiment: as above; conditions: 72 h
DERL-7 (IL-2 2.5 ng/mL) [12] = experiment: as above; conditions: 72 h
[13] = tested on: normal primary NK cells, pool 1 (3 donors) (IL-2 2.5 ng/mL); experiment: as above; conditions: 72 h
NKL (IL-2 2.5 ng/mL) [14] = experiment: as above; conditions: 72 h
KAI3 (IL-2 2.5 ng/mL) [15] = experiment: as above; conditions: 72 h
NK-92 (IL-2 2.5 ng/mL) [16] = experiment: as above; conditions: 72 h
SNK-6 (IL-2 2.5 ng/mL) [17] = experiment: as above; conditions: 72 h
YT (IL-2 2.5 ng/mL) [18] = experiment: as above; conditions: 72 h
KHYG-1 (IL-2 2.5 ng/mL) [19] = experiment: percent inhibition of viability; higher = more inhibition; conditions: 72 h
[20] = tested on: normal primary NK cells, pool 1 (3 donors), resting (IL-2 0 ng/mL); experiment: as above; conditions: 72 h
NK-YS (IL-2 2.5 ng/mL) [21] = experiment: as above; conditions: 72 h
DERL-7 (IL-2 2.5 ng/mL) [22] = experiment: as above; conditions: 72 h
[23] = tested on: normal primary NK cells, pool 1 (3 donors) (IL-2 2.5 ng/mL); experiment: as above; conditions: 72 h
NKL (IL-2 2.5 ng/mL) [24] = experiment: as above; conditions: 72 h
KAI3 (IL-2 2.5 ng/mL) [25] = experiment: as above; conditions: 72 h
NK-92 (IL-2 2.5 ng/mL) [26] = experiment: as above; conditions: 72 h
SNK-6 (IL-2 2.5 ng/mL) [27] = experiment: as above; conditions: 72 h
YT (IL-2 2.5 ng/mL) [28] = experiment: as above; conditions: 72 h

COc1cc(C(=O)O)ccc1NC(=O)[C@@H]1N[C@@H](CC(C)(C)C)[C@](C#N)(c2ccc(Cl)cc2F)[C@H]1c1cccc(Cl)c1F [Idasanutlin] (max concentration tested 10000 nM)
Conditions	drug sensitivity score
IMC-1 (IL-2 20 ng/mL) [1]	3.88
[2]	17
[3]	19.3
[4]	21.9

percent inhibition of viability [%]
Conditions	1 nM	10 nM	100 nM	1000 nM	10000 nM
IMC-1 (IL-2 20 ng/mL) [6]	-3	0.8	-0.27	12.7	40.4
[5]	6.65	13.4	39.6	95.2	101
[7]	-6.26	-3.17	33.5	68.8	95.6
[8]	-8.25	-4.67	32.8	82.7	97.8

CC(=O)O[C@]1(C(C)=O)CC[C@H]2[C@@H]3C=C(C)C4=CC(=O)CC[C@]4(C)[C@H]3CC[C@@]21C [Megestrol acetate] (max concentration tested 10000 nM)
Conditions	drug sensitivity score
IMC-1 (IL-2 20 ng/mL) [1]	0
[2]	1.28
[3]	4.38
[4]	2.54

percent inhibition of viability [%]
Conditions	1 nM	10 nM	100 nM	1000 nM	10000 nM
IMC-1 (IL-2 20 ng/mL) [6]	-3.51	-1.23	-4.32	-2.13	10.4
[5]	-2.74	-5.98	7.94	13.9	28.7
[7]	-8.34	-5.63	0.83	2.52	24.3
[8]	-3.39	3.68	-0.74	11.2	49.3

Nc1nc2[nH]cc(CCc3ccc(C(=O)N[C@@H](CCC(=O)O)C(=O)O)cc3)c2c(=O)[nH]1 [Pemetrexed] (max concentration tested 10000 nM)
Conditions	drug sensitivity score
IMC-1 (IL-2 20 ng/mL) [1]	20.9
[2]	0
[3]	0
[4]	8.95

percent inhibition of viability [%]
Conditions	1 nM	10 nM	100 nM	1000 nM	10000 nM
IMC-1 (IL-2 20 ng/mL) [6]	-2.55	-0.76	27.5	93	94.2
[5]	-3.65	-7.62	29.1	32.5	32.7
[7]	-6.87	-6.65	-7.52	-11.4	-7.17
[8]	-0.42	-8.75	-3.95	-3.15	-2.1

CC[C@H](C)C(=O)O[C@H]1C[C@H](O)C=C2C=C[C@H](C)[C@H](CC[C@@H](O)C[C@@H](O)CC(=O)O)[C@H]21 [Pravastatin] (max concentration tested 10000 nM)
Conditions	drug sensitivity score
IMC-1 (IL-2 20 ng/mL) [1]	0
[2]	0
[3]	0
[4]	0

percent inhibition of viability [%]
Conditions	1 nM	10 nM	100 nM	1000 nM	10000 nM
IMC-1 (IL-2 20 ng/mL) [6]	1.44	3.55	-0.89	2.49	1.04
[5]	-2.35	-3.35	0.49	5.71	4.92
[7]	-14.4	-6.44	1.67	-7.95	-0.67
[8]	-8.99	-4.79	10.9	-9.05	10.6

COc1cc(C(=O)O)ccc1NC(=O)[C@@H]1N[C@@H](CC(C)(C)C)[C@](C#N)(c2ccc(Cl)cc2F)[C@H]1c1cccc(Cl)c1F [RG7388] (max concentration tested 10000 nM)
Conditions	drug sensitivity score
DERL-7 (IL-2 2.5 ng/mL) [12]	23.8
KAI3 (IL-2 2.5 ng/mL) [15]	18.3
KHYG-1 (IL-2 2.5 ng/mL) [9]	2.54
NK-92 (IL-2 2.5 ng/mL) [16]	5
NK-YS (IL-2 2.5 ng/mL) [11]	23.3
NKL (IL-2 2.5 ng/mL) [14]	4.61
SNK-6 (IL-2 2.5 ng/mL) [17]	27.2
YT (IL-2 2.5 ng/mL) [18]	16.1
[10]	28.8
[13]	21.8

percent inhibition of viability [%]
Conditions	DERL-7 (IL-2 2.5 ng/mL) [22]	KAI3 (IL-2 2.5 ng/mL) [25]	KHYG-1 (IL-2 2.5 ng/mL) [19]	NK-92 (IL-2 2.5 ng/mL) [26]	NK-YS (IL-2 2.5 ng/mL) [21]	NKL (IL-2 2.5 ng/mL) [24]	SNK-6 (IL-2 2.5 ng/mL) [27]	YT (IL-2 2.5 ng/mL) [28]	[20]	[23]
1 nM	-5.33	5.19	-1.57	2.22	1.18	2.91	3.57	6.01	-11.7	1.86
10 nM	3.83	25.6	1.09	-12.5	18.7	8.19	25.5	14.9	10.5	-0.07
100 nM	51.1	39.8	-3.21	8.42	53.1	7.58	70.5	38.6	85.2	41.8
1000 nM	96.7	59.1	-4.2	8.41	82.9	5.83	81.8	50.9	92.2	90.3
10000 nM	101	68.4	53.8	65.4	99.9	67	92.7	86.7	93.6	99.1

CCCC(CCC)C(=O)O [Valproic acid] (max concentration tested 1000000 nM)
Conditions	drug sensitivity score
IMC-1 (IL-2 20 ng/mL) [1]	0.34
[2]	0.1
[3]	1.5
[4]	2

percent inhibition of viability [%]
Conditions	100 nM	1000 nM	10000 nM	100000 nM	1000000 nM
IMC-1 (IL-2 20 ng/mL) [6]	-0.33	-1.48	-8.1	-1.23	17.4
[5]	-5.06	-5.78	-6.14	2.07	35.9
[7]	-5.69	-8.36	-12.2	-3.8	14.2
[8]	-3.47	-9.08	-3.52	0.62	31.7
